Measurements taken from paper PMC5501782 (Scientific Reports, 2017).
Non-standard residues stand in square brackets, D forms with d. Residues, ends and D or L forms follow the SMILES beside them.

System: influenza virus (A/Puerto Rico/8/34, PR8) expressing green fluorescent protein (PR8-GFP)
Type: cell-based

CC(C)C[C@@H](NC(=O)[C@@H](CC(C)C)NC(=O)[C@@H](CC(N)=O)NC(=O)[C@H](NC(=O)[C@@H](Cc1ccccc1)NC(=O)CNC(=O)[C@@H](Cc1ccc(O)cc1)NC(=O)CNC(=O)[C@@H](CCCNC(=N)N)NC(=O)[C@@H](CCCCN)NC(=O)[C@@H](CCCCN)NC(=O)[C@@H](CCCNC(=N)N)NC(=O)[C@@H](CCCNC(=N)N)NC(=O)[C@@H](CCC(N)=O)NC(=O)[C@@H](CCCNC(=N)N)NC(=O)[C@@H](CCCNC(=N)N)NC(=O)[C@H](N)CCCNC(=N)N)C(C)C)C(=O)N[C@H](Cc1ccccc1)C(=O)N[C@H](CC(C)C)C(=O)N[C@@H](C(=O)N[C@@H](C(=O)N[C@H](CCC(=O)O)C(=O)O)C(C)C)C(C)C [TAT-Kα2] (H-[dR][dR][dR][dQ][dR][dR][dK][dK][dR]G[dY]G[dF][dV][dN][dL][dL][dF][dL][dV][dV][dE]-OH)
inhibition of PR8-GFP virus infection: significantly inhibited
